Experimental data from paper PMC11847541, “Liver fatty acid binding protein FABP1 transfers substrates to cytochrome P450 4A11 for catalysis” (The Journal of Biological Chemistry, 2025).
Read-outs that look alike come from different tables or passages of the source.

Key:
P450 4A11 [1] = target: T1, P450 4A11 (Homo sapiens, UniProt Q02928); type: biochemical; set-up: made in house; host or cells: E. coli
T1 sequence (Q02928 5-519): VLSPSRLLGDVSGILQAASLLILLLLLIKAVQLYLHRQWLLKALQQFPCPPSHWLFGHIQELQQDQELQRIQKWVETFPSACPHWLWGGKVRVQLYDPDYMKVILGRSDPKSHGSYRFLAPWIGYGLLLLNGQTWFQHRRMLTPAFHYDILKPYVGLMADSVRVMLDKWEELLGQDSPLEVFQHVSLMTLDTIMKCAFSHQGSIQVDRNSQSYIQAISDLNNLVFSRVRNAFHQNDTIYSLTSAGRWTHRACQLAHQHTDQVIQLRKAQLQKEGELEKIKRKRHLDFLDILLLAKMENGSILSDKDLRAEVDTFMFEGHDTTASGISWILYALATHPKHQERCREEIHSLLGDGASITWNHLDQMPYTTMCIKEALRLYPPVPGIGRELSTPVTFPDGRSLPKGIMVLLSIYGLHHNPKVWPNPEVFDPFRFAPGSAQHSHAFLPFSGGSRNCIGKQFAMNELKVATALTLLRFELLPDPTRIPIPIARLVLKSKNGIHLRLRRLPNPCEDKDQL
Source text: To differentiate between the two possible roles of FABP1 in P450 catalysis (competitive binder versus direct transfer, Fig. 2), two catalytic experiments testing palmitate oxidation were designed: one in which the FABP1 concentration was varied with a fixed concentration of palmitate (Fig. 12A) and another performed vice versa (Fig. 12B).
Dashed lines are the predicted kinetic data from the free ligand model (blue) and the direct transfer model (red) using the experimentally determined rate constants (Table 1, Fig. 2). A reaction performed without the addition of FABP1 (open circles) was also fit to a modeled curve (black dashed line), which utilizes only the rate constants determined for P450 4A11. Error bars reflect standard deviation of two replicate values, that is, range (if not visible, the deviation is too small to be represented). FABP1, fatty acid binding protein.
Potassium phosphate buffer (100 mM, pH 7.4), DTT (1 mM, added as described earlier ([44], [56])), and [1-^14C]-palmitate (5 μM, 20 mCi/mmol [added from a 1 mM stock in C2H5OH]) were added, and the mixture was split between vials. Just prior to the reaction preincubation, FABP1 (0–5 μM) was added (diluted so the same volume of FABP1 stock solutions were added to each sample). The mixtures were preincubated (5 min, 37 °C), and P450 4A11 activity was initiated with an NADPH-regenerating system ([78]), the addition of which brought reactions to their final volume (0.5 ml). Reactions (5 min) were quenched via the addition of CH2Cl2 (5 ml), were mixed with a vortex device, and were placed on ice. After the completion of the time course, the samples were centrifuged (1000g, 5 min, 23 °C) to separate layers, the organic layer (4 ml) was transferred to fresh vials, and the solvent was removed under a stream of N2. […] The column eluate was mixed (1:2, v/v) with FlowLogic U scintillation cocktail (LabLogic), and radioactivity (^14C) was detected using a β-RAM Model 5 radioflow detector (IN/US; LabLogic). Product was quantitated on the basis of its ^14C peak area relative to the summed radioactivity of the substrate and product.
To determine the reaction rate versus palmitate concentration, a similar reconstitution premixture was prepared with the modification that FABP1 (5 μM) was used instead of palmitate, and the concentrations of P450 4A11 and NADPH–P450 reductase were increased to 0.3 μM and 0.6 μM, respectively. […] The residue was dissolved in 50 μl C2H5OH, transferred to autosampler vials, and analyzed on LC–MS as described earlier (see “Quantitation of ligand-bound FABP1”) but set to operate in the negative-ion mode with the gradient mobile phase modified to (all % v/v: 0 min, 65% B; 0.5 min, 65% B; 5 min, 100% B; 7.5 min, 100% B; 7.6 min, 65% B; 9 min, 65% B). […]

P450 4A11 [2] = target: T1, P450 4A11; test: Equilibrium binding titrations of P450 4A11 with lipids (heme Soret spectral shift); conditions: for P450 heme Soret spectral shift induced: P450 4A11
Protocol: Affinity of palmitate and 16-OH palmitate for P450 4A11 (1 μM) was assessed by monitoring the blue shift (from ∼420 nm to ∼390 nm) of the P450 heme Soret band as a substrate binds and displaces the sixth axial heme ligand (H2O) to yield pentacoordinated heme (“type I” shift) ([26]).
P450 4A11 (1 μM) was titrated with (A) palmitate and (B) 16-OH palmitate in a 1.0 cm pathlength cell. Difference plots were calculated from absorbance maxima (∼390 nm) and minima (∼420 nm), and the data were fit to a hyperbolic equation. The insets in each panel are the difference spectra between a cuvette that received the lipid substrate and a cuvette that received solvent alone. Each data point corresponds to one independent replicate.
Equilibrium binding titrations with P450 4A11 (1 μM) were performed in buffer (100 mM potassium phosphate [pH 7.4]) as described previously ([44], [56]). Briefly, a baseline was first acquired on an OLIS-Cary 14 spectrophotometer set to scan from 350 to 500 nm in 1 cm glass cuvettes. […] The cuvettes were mixed with a plumper after additions, and spectra were recorded. The spectra were exported into Microsoft Excel software, and the absorbance values at 418 nm were subtracted from those at 390 nm and the values were plotted as a function of lipid concentration.
Titration of P450 4A11 with DAUDA. The P450 concentration was 1 µM and the DAUDA concentration was varied using a geometric series from 1 nM to 10 µM. […] The increase in absorbance in the UV region is due to the strong chromophore in the DAUDA dansyl moiety (Fig. S8).

FABP1: delipidated recombinant liver fatty acid binding protein with C-terminal hexahistidine tag
reduction of enzyme activity (P450 4A11 [1]): ≤ 50%

CCCCCCCCCCCCCCCC(=O)O [Palmitate (C16), palmitate]
maximal observed rate of reaction (P450 4A11 [1]; - cytochrome b5): 12 ± 1 min⁻¹
kcat estimate (P450 4A11 [1]; - cytochrome b5, P450 4A11 0.05 µM): 0.483 ± 0.05 s⁻¹
maximum measurable rate of reaction (k2) (P450 4A11 [1]; palmitate oxidation, without cytochrome b5, did not saturate): 0.2 s⁻¹
Kd (P450 4A11 [2]): 5200 ± 1600 nM
P450 heme Soret spectral shift induced (P450 4A11 [2]; listed as Palmitate): classical type I spectral shift
P450 heme Soret spectral shift induced (P450 4A11 [2]; listed as palmitate): type I

O=C(O)CCCCCCCCCCCCCCCO [16-OH Palmitate (C16), 16-hydroxypalmitate]
P450 heme Soret spectral shift induced (P450 4A11 [2]): reverse type I shift
Kd (P450 4A11 [2]; read-out: Kd for P450 4A11, P450 4A11 1 μM, 100 mM potassium phosphate pH 7.4): 270 ± 40 nM
